These results are taken from ChEMBL document CHEMBL4732090, “Preparation of new 1,3-dibenzyl tetrahydropyridinylidene ammonium salts and their antimicrobial and anticellular activities” (Eur J Med Chem, 2021).

The test system of one data set is Plasmodium falciparum. The data set can be described thus: Antiplasmodial activity against Plasmodium falciparum NF54 erythrocytic stages assessed as reduction in [3H]hypoxanthine incorporation measured after 48 hrs by liquid scintillation counting method. The class given is functional, organism-based.
Data set [1] in a line: Selectivity index, ratio of IC50 for rat L6 cells to IC50 for Plasmodium falciparum NF54. The class given is toxicity. As to conditions: read-out: Ratio IC50.
The subject of data set [2] is Trypanosoma brucei rhodesiense. The data set can be described thus: Trypanocidal activity against Trypanosoma brucei rhodesiense STIB900 incubated for 70 hrs by Alamar blue assay. To be noted: STIB900, 70 h. The class given is functional, organism-based. A general note: Alamar Blue is a resazurin reagent that responds to reducing activity.
Data set [3] is described as follows: Selectivity index, ratio of IC50 for rat L6 cells to IC50 for Trypanosoma brucei rhodesiense STIB900. The class given is toxicity. As to conditions: read-out: Ratio IC50.
In another data set the test system is L6. The experiment in a line: Cytotoxicity against rat L6 cells after 70 hrs by Alamar blue assay. The format is cell-based. As to conditions: L6, 70 h.
The next data set relates to Staphylococcus aureus. The data set can be described thus: Antibacterial activity against Staphylococcus aureus ATCC 29213 assessed as diameter of inhibition zone at 10 mg/ml by disk diffusion assay. The format is functional. As to conditions: read-out: DIZ. On the technique in general: A growth-free zone around the sample is the usual read-out of agar diffusion tests.

The test system of data set [4] is Staphylococcus epidermidis. The data set can be described thus: Antibacterial activity against Staphylococcus epidermis ATCC 12228 assessed as diameter of inhibition zone at 10 mg/ml by disk diffusion assay. The class given is functional. To be noted: read-out: DIZ.
The test system of another data set is Escherichia coli. The data set can be described thus: Antibacterial activity against Escherichia coli ATCC 25922 assessed as diameter of inhibition zone at 10 mg/ml by disk diffusion assay. The class given is functional. As to conditions: read-out: DIZ.
The next data set deals with Pseudomonas aeruginosa. The data set can be described thus: Antibacterial activity against Pseudomonas aeruginosa ATCC 27853 assessed as diameter of inhibition zone at 10 mg/ml by disk diffusion assay. The class given is functional. As to conditions: read-out: DIZ.
For another data set, the system named is Candida albicans. The data set can be described thus: Antifungal activity against Candida albicans ATCC 90028 assessed as diameter of inhibition zone at 10 mg/ml by disk diffusion assay. The format is functional. As to conditions: read-out: DIZ.

By IC50 is commonly meant the concentration that gives 50% inhibition. Regarding `CC1(C)C(Cc2ccc([N+](=O)[O-])cc2)C(=[N+]2CCCC2)C=CN1Cc1ccccc1` (racemic), the IC50 in the data set with Plasmodium falciparum was determined as 43 nM; in [2], 5450 nM; in the data set on L6 (read-out: IC50), 206000 nM. Further, the selectivity ratio in data set [1] amounted to 4800; in [3], 37.9. In addition, the zone of inhibition at 10000 µg/mL is 15 mm in the data set on Staphylococcus aureus; 18 mm in [4]; 11 mm with Escherichia coli; 0 mm with Pseudomonas aeruginosa; 0 mm in the data set with Candida albicans.
In the case of `CC1(C)C(Cc2ccc(Br)cc2)C(=[N+]2CCCC2)C=CN1Cc1ccccc1` (racemic), the IC50 in the data set on Plasmodium falciparum was determined as 7.7 nM; in data set [2], 180 nM; in the data set with L6 (read-out: IC50), 34500 nM. Moreover, the results for the selectivity ratio in data set [1] and in [3] were 4480 and 192, respectively. Further, the zone of inhibition at 10000 µg/mL in the data set with Staphylococcus aureus is 22 mm; in data set [4] it was 25 mm; in the data set with Escherichia coli, 11 mm; in the data set with Pseudomonas aeruginosa it was 0 mm; in the data set with Candida albicans, 13 mm.
Turning to `CC1(C)C(Cc2ccc(Cl)cc2Cl)C(=[N+]2CCCC2)C=CN1Cc1ccccc1` (racemic), the values for the IC50 (with Plasmodium falciparum; in data set [2]; with L6 (read-out: IC50)) were 18 nM, 110 nM and 26100 nM, respectively. The selectivity ratio in data set [1] turned out to be 1450; in data set [3], 237. In addition, the zone of inhibition at 10000 µg/mL in the data set with Staphylococcus aureus worked out at 22 mm; in [4] it was 26 mm; in the data set on Escherichia coli, 12 mm; in the data set with Pseudomonas aeruginosa it was 0 mm; with Candida albicans it was 15 mm.
For `CC1(C)C(Cc2ccc(Cl)cc2)C(=[N+]2CCCC2)C=CN1Cc1ccccc1` (racemic), the figures for the IC50 (with Plasmodium falciparum; in data set [2]; in the data set on L6 (read-out: IC50)) were 17 nM, 500 nM and 89500 nM, respectively. Besides, the selectivity ratio in [1] is 5260; in [3] it was 179. For the same compound, the zone of inhibition at 10000 µg/mL in the data set on Staphylococcus aureus stood at 24 mm; in data set [4], 21 mm; in the data set on Escherichia coli, 8 mm; in the data set on Pseudomonas aeruginosa, 0 mm; in the data set with Candida albicans, 11 mm.
With `CC1(C)C(Cc2c(Cl)cccc2Cl)C(=[N+]2CCCC2)C=CN1Cc1ccccc1` (racemic), the 50% inhibitory concentration (IC50) with Plasmodium falciparum came to 31 nM; in data set [2] it was 63 nM; with L6 (read-out: IC50), 15000 nM. The selectivity ratio in data set [1] stood at 483; in [3], 238. Further, the zone of inhibition at 10000 µg/mL amounted to 23 mm in the data set on Staphylococcus aureus; 26 mm in data set [4]; 10 mm in the data set on Escherichia coli; 7 mm with Pseudomonas aeruginosa; 10 mm in the data set on Candida albicans.
As for `CC1(C)S[C@@H]2[C@H](NC(=O)[C@H](N)c3ccccc3)C(=O)N2[C@H]1C(=O)O` [AMPICILLIN], the zone of inhibition at 10000 µg/mL in [4] was 45 mm; in the data set with Escherichia coli it was 15 mm; with Pseudomonas aeruginosa, 0 mm; in the data set on Candida albicans, 0 mm.
Turning to `CCN(CC)CCCC(C)Nc1ccnc2cc(Cl)ccc12` (stereo not drawn) [CHLOROQUINE], the IC50 in the data set with L6 (read-out: IC50) came out at 117000 nM.
With `O=C(O)c1cn(C2CC2)c2cc(N3CCNCC3)c(F)cc2c1=O` [CIPROFLOXACIN], the zone of inhibition at 10000 µg/mL with Staphylococcus aureus turned out to be 14 mm; in the data set on Pseudomonas aeruginosa, 0 mm; with Candida albicans it was 0 mm.
In the case of `Nc1nc(N)nc(Nc2ccc([As]3SCC(CO)S3)cc2)n1` (stereo not drawn) [MELARSOPROL], the selectivity ratio in data set [3] was 2000.
Turning to `COc1cc([C@@H]2c3cc4c(cc3[C@H](O)[C@H]3COC(=O)[C@H]23)OCO4)cc(OC)c1OC` [PODOFILOX], the IC50 with L6 was 12 nM.
`COc1cc(Cc2cnc(N)nc2N)cc(OC)c1OC` [TRIMETHOPRIM]: the values for the zone of inhibition at 10000 µg/mL in the data set on Staphylococcus aureus, in the data set with Pseudomonas aeruginosa and in the data set with Candida albicans were 22 mm, 0 mm and 0 mm, respectively.
